Results on five compounds are retold here after paper PMC6044835, “Expression, Purification, and Biochemical Characterization of the Flavocytochrome P450 CYP505A30 from Myceliophthora thermophila” (ACS Omega, 2017).

Read-outs that look alike come from different tables or passages of the source.

The target of data set [1] is T1, CYP505A30 heme domain (Thermothelomyces thermophilus, UniProt G2QDZ3). As to conditions: arachidonic acid-bound heme domain, vs NHE.
For data set [2], the system named is P450 BM3. As to conditions: cited from earlier work.
The target in data set [3] is T2, CYP505A30 (Thermothelomyces thermophilus, UniProt G2QDZ3). Nature of the data set: UV–visible spectral binding titration with intact CYP505A30. As to conditions: for Kd: substrate binding to intact CYP505A30, heme absorbance change, 25 °C.
Data set [4] concerns the target T1, CYP505A30 heme domain. Nature of the data set: UV–visible spectral binding titration with CYP505A30 heme domain.
A further data set addresses T3, heme domain (Thermothelomyces thermophilus, UniProt G2QDZ3).
T3 construct: gene MYCTH_101224; heme domain, amino acids 1-464 (stop codon at Gly465, named D464X), N-terminal hexahistidine tag (pET15b), expressed in E. coli
T3 sequence (G2QDZ3 1-464): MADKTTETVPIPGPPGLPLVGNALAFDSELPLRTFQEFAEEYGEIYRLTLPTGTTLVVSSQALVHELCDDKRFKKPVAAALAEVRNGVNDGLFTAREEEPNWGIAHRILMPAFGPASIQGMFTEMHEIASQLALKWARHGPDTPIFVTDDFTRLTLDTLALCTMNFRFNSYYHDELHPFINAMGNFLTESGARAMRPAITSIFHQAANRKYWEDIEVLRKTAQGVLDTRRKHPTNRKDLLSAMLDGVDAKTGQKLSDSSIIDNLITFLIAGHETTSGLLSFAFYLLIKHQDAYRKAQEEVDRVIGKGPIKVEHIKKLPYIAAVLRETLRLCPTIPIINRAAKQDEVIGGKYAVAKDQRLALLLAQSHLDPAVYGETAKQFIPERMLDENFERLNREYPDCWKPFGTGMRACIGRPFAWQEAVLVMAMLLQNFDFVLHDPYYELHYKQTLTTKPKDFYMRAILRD
The data set is described as follows: UV-visible spectral binding titration of fatty acid substrates (type I heme Soret shift) to ca. 4-6 uM enzyme in 50 mM potassium phosphate pH 7.0 at 25 °C, hyperbolic or Morrison fit.

The target in data set [5] is T2, CYP505A30. Described as above. More on the design: gene MYCTH_101224; intact CYP505A30, amino acids 1-1080, N-terminal hexahistidine tag (pET15b), expressed in E. coli.
In data set [6] the test system is CYP505A1. Nature of the data set: CYP505A1 dodecanoic acid oxidation product distribution (literature). The format is biochemical, Fusarium oxysporum. The settings on record: CYP505A1, from literature values.
The target in data set [7] is T2, CYP505A30.
For data set [8], the target named is T1, CYP505A30 heme domain.
Data set [9] addresses T2, CYP505A30. This is another data set of the same source.
Data set [10] deals with P450 BM3. Set-up: method as in PMID 1727637. The settings on record: cited from earlier work.
Data set [11] deals with CYP505A1. More on the design: method as in PMID 11985584. The settings on record: cited from earlier work.
For a further data set, the target named is rat CPR. As to conditions: cited from earlier work.
Data set [12] addresses FMN (flavodoxin-like) domain of human reductase. More on the design: method as in PMID 6778861, PMID 11695890, PMID 12600198. As to conditions: cited from earlier work.
Data set [13] has as its system FMN (flavodoxin-like) domain of P450 BM3 reductase. Set-up: method as in PMID 6778861, PMID 11695890, PMID 12600198. The settings on record: cited from earlier work.
For data set [14], the target named is Desulfovibrio vulgaris flavodoxin. The settings on record: D. vulgaris flavodoxin; cited from earlier work.

For orientation: Kd means the concentration at which binding is half-saturated.

T2 sequence (G2QDZ3 entry or part of it): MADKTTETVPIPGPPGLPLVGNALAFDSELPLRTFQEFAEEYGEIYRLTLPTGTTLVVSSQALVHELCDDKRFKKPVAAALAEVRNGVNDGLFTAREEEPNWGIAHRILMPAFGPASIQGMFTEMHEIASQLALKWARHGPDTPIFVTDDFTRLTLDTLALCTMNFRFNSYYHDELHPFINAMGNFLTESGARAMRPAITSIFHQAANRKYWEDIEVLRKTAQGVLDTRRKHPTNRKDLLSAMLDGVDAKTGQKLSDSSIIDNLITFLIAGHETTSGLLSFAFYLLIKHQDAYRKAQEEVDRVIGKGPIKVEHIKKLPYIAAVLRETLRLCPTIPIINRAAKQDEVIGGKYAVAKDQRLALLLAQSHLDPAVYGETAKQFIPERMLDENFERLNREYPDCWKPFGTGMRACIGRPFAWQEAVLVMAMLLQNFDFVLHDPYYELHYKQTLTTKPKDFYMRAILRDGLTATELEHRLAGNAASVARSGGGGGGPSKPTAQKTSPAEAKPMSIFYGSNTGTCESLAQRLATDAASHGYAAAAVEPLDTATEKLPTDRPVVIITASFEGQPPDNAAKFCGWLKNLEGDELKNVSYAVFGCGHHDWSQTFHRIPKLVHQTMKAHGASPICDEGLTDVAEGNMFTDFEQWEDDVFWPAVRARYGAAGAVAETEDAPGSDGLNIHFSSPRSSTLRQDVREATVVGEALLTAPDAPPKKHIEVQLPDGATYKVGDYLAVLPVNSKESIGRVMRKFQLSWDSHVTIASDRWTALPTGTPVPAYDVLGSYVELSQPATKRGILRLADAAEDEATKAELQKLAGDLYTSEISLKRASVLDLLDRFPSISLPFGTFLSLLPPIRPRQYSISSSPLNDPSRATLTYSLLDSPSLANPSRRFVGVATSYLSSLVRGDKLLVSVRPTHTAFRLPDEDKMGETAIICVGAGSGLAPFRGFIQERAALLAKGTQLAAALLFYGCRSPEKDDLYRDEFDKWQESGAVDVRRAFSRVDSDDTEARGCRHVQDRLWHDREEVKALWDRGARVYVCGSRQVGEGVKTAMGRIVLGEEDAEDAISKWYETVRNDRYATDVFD

Regarding `CCCCC/C=C\C/C=C\C/C=C\C/C=C\CCCC(=O)O` [arachidonic acid], the “heme Fe^III/Fe^II midpoint potential E^0′” value on CYP505A30 heme domain [1] is given as −69 ± 3 mV. Moreover, in the data set with P450 BM3 [2] (P450 BM3, similar conditions), the kcat is given as 285 ± 32 s^–1. Also, the “rate constant of oxidation” value in the data set on P450 BM3 [2] (P450 BM3) was > 17 000 min^–1. Further, the Kd on CYP505A30 [3] was found to be 1700 ± 100 nM; on CYP505A30 heme domain [4] it was 120 ± 10 nM. Further, the “HS (%)” value was 60% at CYP505A30 [3] (extent of HS heme iron accumulated, intact CYP505A30, estimated to nearest 5%) and 65% at CYP505A30 heme domain [4] (extent of HS heme iron accumulated, heme domain, estimated to nearest 5%).

Consider `CCCCCCCCCCCCCCCC(=O)NCC(=O)O` [N-palmitoylglycine (NPG), N-palmitoylglycine], for which the Kd was found to be 2700 ± 800 nM on heme domain and 5400 ± 100 nM on CYP505A30 [5].

Take `CCCCCCCCCCCC(=O)O` [dodecanoic acid]: the “ratio ω-1/ω-2 hydroxylated products” value is 1.5 in the data set on CYP505A1 [6] and 8.8 at CYP505A30 [9] (CYP505A30). The entries for the “HS (%)” value at CYP505A30 [7] and at CYP505A30 heme domain [8] were 10% and 60%, respectively. The “ω-1 hydroxylated product proportion” value was 88% at CYP505A30 [9] (CYP505A30, GC–MS); “approximately 88%” at CYP505A30 [9] (CYP505A30, GC–MS, listed as lauric acid); 48% with P450 BM3 [10]; around 55% in the data set on CYP505A1 [11]. The “ω-2 hydroxylated product proportion” value on CYP505A30 [9] (CYP505A30, GC–MS) is listed as around 10%; in the data set on P450 BM3 [10] it was 26%; in the data set on CYP505A1 [11], around 37%. For the same compound, the “ω-3 hydroxylated product proportion” value at CYP505A30 [9] (CYP505A30, GC–MS) was 2%; in the data set on P450 BM3 [10], 26%; in the data set on CYP505A1 [11], around 8%. Also, the Kd at CYP505A30 [3] came out at 6100 ± 400 nM; at CYP505A30 heme domain [4], 9000 ± 900 nM.

As for `Cc1cc2nc3c(=O)[nH]c(=O)nc-3n(C[C@H](O)[C@H](O)[C@H](O)COP(=O)(O)OP(=O)(O)OC[C@H]3O[C@@H](n4cnc5c(N)ncnc54)[C@H](O)[C@@H]3O)c2cc1C` [FAD, flavin adenine dinucleotide], the binding entry at rat CPR was “subnanomolar”.

Take `Cc1cc2nc3c(=O)[nH]c(=O)nc-3n(C[C@H](O)[C@H](O)[C@H](O)COP(=O)(O)O)c2cc1C` [FMN, flavin mononucleotide]: the Kd in [12] was 42 ± 7 nM; in data set [13] it was 86 ± 14 nM; in [14] it was 2.4 nM.
